Usually Kd stands for the concentration at which binding is half-saturated. The low end stands for higher affinity, the high end for lower affinity.

Here are results for 3 molecules from article PMC4807248 (The Journal of Biological Chemistry, 2016).

Experiment [1] has as its target T1, PqsBC (Pseudomonas aeruginosa, UniProt Q9I4X1, C129S).
T1 construct: gene pqsC
Kind of experiment: biochemical.

Experiment [2] addresses T2, PqsBC (Pseudomonas aeruginosa, UniProt Q9I4X1, H269A).
T2 construct: gene pqsC
The experiment in a line: biochemical.

Experiment [3] deals with T3, PqsBC (Pseudomonas aeruginosa, UniProt Q9I4X1, V299N).
T3 construct: gene pqsC
Kind of experiment: biochemical.

In experiment [4] the target is T4, PqsBC (Pseudomonas aeruginosa, UniProt Q9I4X1, C129A).
T4 construct: gene pqsC
Kind of experiment: biochemical.

The target in the next experiment is T5, PqsC^C129A (P. aeruginosa PAO1, UniProt Q9I4X1 2-348, C129A).
T5 construct: also called PqsC subunit of PqsBC^C129A
T5 sequence: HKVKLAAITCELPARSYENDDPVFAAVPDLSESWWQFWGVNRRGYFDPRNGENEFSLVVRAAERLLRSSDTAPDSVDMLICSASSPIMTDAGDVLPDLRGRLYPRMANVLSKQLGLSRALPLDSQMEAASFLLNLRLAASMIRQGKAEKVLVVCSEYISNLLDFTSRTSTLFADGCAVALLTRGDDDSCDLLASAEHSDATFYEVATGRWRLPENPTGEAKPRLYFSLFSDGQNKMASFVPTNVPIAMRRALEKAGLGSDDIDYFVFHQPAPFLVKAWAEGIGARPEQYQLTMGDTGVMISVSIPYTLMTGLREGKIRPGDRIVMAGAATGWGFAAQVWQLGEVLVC
The experiment in a line: crystal structure; PqsBC^C129A crystallised in 25% PEG 3350, 0.1 M Tris pH 8.3, 0.2 M NaCl; 2.0 Å; four copies of PqsB and four of PqsC in the asymmetric unit. Particulars: both partners purified.

T2 sequence (Q9I4X1 whole entry, stated change not applied, one chain of several): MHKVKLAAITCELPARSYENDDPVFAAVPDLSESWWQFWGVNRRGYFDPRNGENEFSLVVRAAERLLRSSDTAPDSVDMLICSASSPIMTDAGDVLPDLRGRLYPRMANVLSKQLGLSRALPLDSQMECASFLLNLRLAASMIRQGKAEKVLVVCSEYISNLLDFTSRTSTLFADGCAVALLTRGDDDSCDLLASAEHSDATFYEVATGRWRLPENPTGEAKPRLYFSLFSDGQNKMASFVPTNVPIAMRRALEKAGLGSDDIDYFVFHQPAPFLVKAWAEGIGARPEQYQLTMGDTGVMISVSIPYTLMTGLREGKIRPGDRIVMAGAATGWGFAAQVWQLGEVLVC
T1 sequence (Q9I4X1 whole entry, stated change not applied, one chain of several): as above
T3 sequence (Q9I4X1 whole entry, stated change not applied, one chain of several): as above
T4 sequence (Q9I4X1 whole entry, stated change not applied, one chain of several): as above

With `CC(=O)c1ccccc1N` [2-aminoacetophenone], the Kd at PqsBC [1] was 170 ± 10 µM; at PqsBC [2] it was 117 ± 6 µM; at PqsBC [3], above 1000 µM; at PqsBC [4] it was 158 ± 12 µM.

With `Nc1ccccc1C(=O)CC(=O)O` [2-aminobenzoylacetate], the Kd at PqsBC [1] is 411 ± 43 µM; at PqsBC [2], 198 ± 11 µM; on PqsBC [3] it was above 1000 µM; at PqsBC [4], 330 ± 30 µM.

B1: PqsB (natural protein)
chain: MLIQAVGVNLPPSYVCLEGPLGGERPRAQGDEMLMQRLLPAVREALDEAAVKPEEIDLIVGLALSPDHLIENRDIMAPKIGHPLQKVLGANRAHVFDLTDSSLARALYVVDTLASDQGYRNVLVVRGESSQGLEVDSESGFALADGALALLCRPTGKAAFRRGALGGDPAQEWLPLSIPLNTDIRQVGDVKGHLNLPAQPGLPEAVRAGFTRLAGDFPQLNWVREEWFGQGRPDGRCLGPFELASQLRAAQRDRLDELLLISFDPFGMVVEGVTLELAGEAHA
notes: also called PqsB subunit of PqsBC
For B1, the binding result with PqsC^C129A is “binds”.
